This is an account of results in US4912102A, “Analogs of naphtho[1,2-β] [1,4] thiazepin-4(5H)-one” (Hoffmann-La Roche Inc., priority 1988, dated 1990).

Structures can show the parent of a compound that is named as a salt. Where two headings read alike, the source gives them in different places.

Test [1] concerns Guinea Pig Ileal Longitudinal Smooth Muscle. As to the kind of experiment: Inhibition of K+-induced tonic contraction, guinea pig ileum assay (calcium channel blocking activity). The settings on record: for IC50: tonic contraction, 80 mM K+ challenge, 37° C., read-out: Inhibition of K^+-Induced Contractile Responses, IC50, Tonic; for activity in the guinea pig ileum test: doses up to 10^-4 M. It is filed as cell-based. On the procedure: Male guinea-pigs weighing from 300-400 grams were stunned and bled. The abdomen was opened and 10-15 cm of terminal ileum was carefully removed and cleaned and placed in Tyrode's Solution of the following composition: NaCl (8 g/l), KCl (0.2 g/l), MgCl2 (0.1 g/l), CaCl2 (0.2 g/l). NaH2 PO4 (0.05 g/l), NaHCO3 (1.0 g/l) and Glucose (1 g/l). The solution was maintained at 37° C. and gassed with 95% O2 and 5% CO2. Portions of the ileum were placed over a glass rod, a shallow incision was made the length of the mesenteric attachment just severing the outer-longitudinal muscle layer. The longitudinal muscle was separated from the underlying circular muscle by gentle dissection (Rang. H. P. Annals. of New York Academy of Science, vol. 144, page 756, 1964). The tissue was fixed at one end to a tissue holder, the other end was connected by a thread to a force transducer and suspended in a muscle bath containing Tyrode's Solution maintained at 37° C. and gassed with 95% O2 and 5% CO2. An initial tension of 500 mg was applied and the tissue allowed to equilibrate for 60 minutes prior to the start of the study. During this period the tissue was washed every 16 minutes. Each preparation, at 16 minute intervals, was challenged with KCl sufficient to yield a bath K+ concentration of 80 mMK for 2 minutes, then washed with fresh solution. The 16 minute interval between K+ challenges was maintained throughout the study. Upon stabilization of the responses to the K+ challenge the test compound (potential calcium entry antagonist) was introduced into the bath 2 minutes prior to and during the 2 minute exposure to K+ after which the bath was cleared and washed with fresh solution. Logarithmically increasing doses (up to 10^-4 M) of the potential antagonist were administered as the study progressed. The measure of a compound's ability to inhibit the tonic contraction of muscle is a measure of its activity as a calcium channel blocking agent.

Test [2] concerns lipid peroxidation in liposomes prepared from native rat cardiac lipid. As to the kind of experiment: Anti-peroxidative activity (superoxide-dependent, iron-promoted lipid peroxidation, MDA-like products). It is filed as biochemical. Particulars: for Anti-Peroxidative Activity % Inhibition (1 μM) / IC50: 60 minutes at 37° C. The method, then:
An in vitro assay system to measure antiperoxidative activity is done in two steps: (A) lipid peroxidation is triggered by a free-radical generating system that replicates the superoxide-dependent, iron-promoted Haber-Weiss reaction, and (B) peroxidation is measured spectrophotometrically as the production of malondialdehyde-like products (MDA). Liposomes prepared from the native rat cardiac lipid are incubated with hypoxanthine, xanthine oxidase, and Fe· ADP chelate, and a test substance or buffer in glass tubes for 60 minutes at 37° C. The amount of peroxidation is determined by adding a thiobarbituric acid-reaction mixture to the tubes, heating to 80° C. for 30 minutes and reading the pink adduct at 530 nm.

One may read the IC50 as the midpoint of a concentration-inhibition curve. Regarding `COc1ccc([C@@H]2Sc3c(ccc4ccccc34)N(CCN(C)C)C(=O)[C@@H]2OC(=O)c2ccccc2O)cc1` (racemic) [Compound F, (±)-cis-2,3-dihydro-3-[(2-hydroxybenzoyl)oxy]-5-[2-(dimethylamino)ethyl]-2-(4-methoxyphenyl)naphtho[1,2-b][1,4]thiazepin-4(5H)-one hydrochloride], in test [1] (Cavia porcellus), the IC50 came out at 45 µM.
With `COc1ccc([C@@H]2Sc3c(ccc4ccccc34)N(CCN(C)C)C(=O)[C@@H]2OC(=O)c2cc(OC)c(OC)c(OC)c2)cc1` (racemic) [Compound J, (±)-cis-2,3-dihydro-2-(4-methoxyphenyl)-3-[(3,4,5-trimethoxybenzoyl)oxy]-5-[2-(dimethylamino)ethyl]naphtho [1,2-b][1,4]thiazepin-4(5H)-one hydrochloride], the IC50 in test [1] (Cavia porcellus) was 70 µM.
`COc1ccc([C@@H]2Sc3c(ccc4ccccc34)N(CCN(C)C)C(=O)[C@@H]2OC(=O)c2cc(C(C)(C)C)c(O)c(C(C)(C)C)c2)cc1` (racemic) [Example 14, (±)-cis-2,3-Dihydro-3-[[4-hydroxy-3,5-bis(1,1-dimethylethyl)benzoyl]oxy]-2-(4-methoxyphenyl)-5-[2-(dimethylamino)ethyl]naphtho[1,2-b][1,4]thiazepin-4(5H)-one]: the “activity in the guinea pig ileum test” value in test [1] was “not found to be active”. Besides, in test [2], the “activity in the anti-peroxidative test” value is “active”.
Take `CNCCN1C(=O)[C@H](O)[C@H](c2ccc(OC)cc2)Sc2c1ccc1ccccc21` (relative stereo) [Compound C]: the IC50 in test [1] was determined as 7 µM.
Turning to `CNCCN1C(=O)[C@H](OC(C)=O)[C@H](c2ccc(OC)cc2)Sc2c1ccc1ccccc21` (relative stereo) [Compound D], in test [1], the IC50 worked out at 3.5 µM.
Turning to `COc1ccc([C@@H]2Sc3c(ccc4ccccc34)N(CCN(C)C)C(=O)[C@@H]2OC(=O)c2ccccc2OC(C)=O)cc1` (relative stereo) [Compound E, (±)-cis-3-[[(2-acetyloxy)benzoyl]oxy]-2,3-dihydro-5-[2-(dimethylamino)ethyl]-2-(4-methoxyphenyl)naphtho[1,2-b][1,4]thiazepin-4(5H)-one hydrochloride], the IC50 in test [1] (Cavia porcellus) was found to be 13 µM.
The same measure, in the same setting: as for `COc1ccc([C@@H]2Sc3c(ccc4ccccc34)N(CCN(C)C)C(=O)[C@@H]2OC(=O)c2cccnc2)cc1` (relative stereo) [Compound M, (±)-cis-2,3-dihydro-2-(4-methoxyphenyl)-5-[2-(dimethylamino)ethyl]-3-[(3-pyridinylcarbonyl)oxy]naphtho[1,2-b][1,4]thiazepin-4(5H)-one dihydrochloride (4:5) hydrate], the figure is 16 µM.
For the compound `COc1ccc([C@@H]2Sc3c(ccc4ccccc34)N(CCN(C)C)C(=O)[C@@H]2OC(=O)c2ccc(OC)c(OC)c2)cc1` (relative stereo) [Example 4, (±)-cis-3-[(3,4-Dimethoxybenzoyl)oxy]-2,3-dihydro-5-[2-(dimethylamino)ethyl]-2-(4-methoxyphenyl)naphtho][1,2-b][1,4]thiazepin-4(5H)-one], the “activity in the guinea pig ileum test” value in test [1] is “not found to be active”. Also, the “activity in the anti-peroxidative test” value in test [2] is “active”.
In the case of `COc1ccc([C@@H]2Sc3c(ccc4ccccc34)N(CCN(C)C)C(=O)[C@@H]2OC(=O)C2(C)CCc3c(cc(C(C)C)c(O)c3C(C)C)O2)cc1` (relative stereo) [Example 15 isomer "A", [(±)-cis-3(2alpha or 2beta)]-2,3-dihydro-3-[[[3,4-dihydro-6-hydroxy-2-methyl-5,7-bis(1-methylethyl)-2H-1-benzopyran-2-yl]carbonyl]oxy]-5-[2-(dimethylamino)ethyl]-2-(4-methoxyphenyl)naphtho[1,2-b][1,4]thiazepin-4(5H)-one], in test [2], the “activity in the anti-peroxidative test” value is “found to be active” and the IC50 is less than 1 µM. Moreover, the “Anti-Peroxidative Activity % Inhibition (1 μM)” value in test [2] (listed as drawing 26, 1 µM) stood at 62.6%.
On to `COc1ccc([C@@H]2Sc3c(ccc4ccccc34)N(CCN(C)C)C(=O)[C@@H]2OC(=O)C2(C)CCc3c(cc(C(C)C)c(O)c3C(C)C)O2)cc1` (relative stereo) [Example 15 isomer "B", [(±)-cis-3(2alpha or 2beta)]-2,3-dihydro-3-[[[3,4-dihydro-6-hydroxy-2-methyl-5,7-bis(1-methylethyl)-2H-1-benzopyran-2-yl]carbonyl]oxy]-5-[2-(dimethylamino)ethyl]-2-(4-methoxyphenyl)naphtho[1,2-b][1,4]thiazepin-4(5H)-one], for which the “Anti-Peroxidative Activity % Inhibition (1 μM)” value in test [2] (listed as drawing 27, 1 µM) stood at 66.7%. Moreover, the IC50 in test [2] is less than 1 µM.
In the case of `COc1ccc([C@@H]2Sc3c(ccc4ccccc34)N(CCN(C)C)C(=O)[C@@H]2OC(=O)C2(C)CCc3c(C)c(O)c(C)c(C)c3O2)cc1` (relative stereo) [Example 18, [(+)-cis-3(2alpha and 2beta)1-2,3-Dihydro-3-[[(3,4-dihydro-6-hydroxy-2,5,7,8-tetramethyl-2H-1-benzopyran-2-yl)carbonyl]oxy]-2-(4-methoxyphenyl)-5-[2-(dimethylamino)ethyl]naphtho[1,2-b][1,4]thiazepin-4(5H)-one], the “activity in the guinea pig ileum test” value in test [1] is given as “not found to be active”. Besides, in test [2], the “activity in the anti-peroxidative test” value was “active”.
In the case of `COc1ccc([C@@H]2Sc3c(ccc4ccccc34)N(CCN(C)C)C(=O)[C@@H]2OC(=O)C2(C)CCc3c(cc(C(C)C)c(O)c3C(C)C)O2)cc1` (single isomer, unassigned; (+)) [Example 17 isomer "A", [(+)-Cis-3(2α or 2β)]-2,3-dihydro-3-[[[3,4-dihydro-6-hydroxy-2-methyl-5,7-bis(1-methylethyl)-2H-1-benzopyran-2-yl]carbonyl]oxy]-5-[2-(dimethylamino)ethyl]-2-(4-methoxyphenyl)naphtho[1,2-b][1,4]thiazepin-4(5H)-one (E)-2-butenedioate monohydrate], the “activity in the guinea pig ileum test” value in test [1] is “not found to be active”. In addition, in test [2], the “activity in the anti-peroxidative test” value was “found to be active” and the IC50 was less than 1 µM. Also, the “Anti-Peroxidative Activity % Inhibition (1 μM)” value in test [2] (monohydrate) came to 58.5%.
Take `COc1ccc([C@@H]2Sc3c(ccc4ccccc34)N(CCN(C)C)C(=O)[C@@H]2OC(=O)C2(C)CCc3c(cc(C(C)C)c(O)c3C(C)C)O2)cc1` (single isomer, unassigned; (+)) [Example 17 isomer "B", [(+)-cis-3(2alpha, or 2beta)]-2,3-dihydro-3-[[[3,4-dihydro-6-hydroxy-2-methyl-5,7-bis(1-methylethyl)-2H-1-benzopyran-2-yl]carbonyl]oxy]-5-[2-(dimethylamino)ethyl]-2-(4-methoxyphenyl)naphtho[1,2-b][1,4]thiazepin-4(5H)-one]: the “activity in the guinea pig ileum test” value in test [1] was “not found to be active”. In test [2], the “Anti-Peroxidative Activity % Inhibition (1 μM)” value turned out to be 59.6% and the IC50 was less than 1 µM.
